Drawing on ChEMBL document CHEMBL1130504, “Synthesis and biological activity of artificial analogs of mycalamide A” (Bioorg Med Chem Lett, 1997), this text covers MIC and IC50 for 14 molecules.

In brackets after ≈: the same amount, converted by molar mass.

Test [1] deals with HEL. In words: (§1) In vitro minimum inhibitory concentration for antiviral activity was tested against Varicella-Zoster virus(VZV). In kind it is functional. Conditions: Homo sapiens.
Test [2] deals with HeLa. In words: In vitro inhibitory concentration for cytotoxic activity was tested against HeLa cells. The class given is functional, cell-based. Conditions: Homo sapiens.
Test [3] deals with Vero. The test is described as follows: In vitro inhibitory concentration for antiviral activity was tested against vero cells. The class given is functional, cell-based. Conditions: Chlorocebus sabaeus.
Test [4] relates to HEL. The test is described as follows: In vitro inhibitory concentration for antiviral activity was tested against HEL cells. In kind it is functional, cell-based. The conditions noted are these: Homo sapiens.
In test [5] the test system is Vero. In words: (§2) In vitro minimum inhibitory concentration for antiviral activity was tested against Herpes simplex virus type 1(HSV-1). The class given is functional. The conditions noted are these: Chlorocebus sabaeus.
Test [6] relates to Human alphaherpesvirus 1. The description is as §2. The class given is functional.
In test [7] the test system is Human alphaherpesvirus 3. Described as §1. The class given is functional.

Usually IC50 stands for the midpoint of a concentration-inhibition curve. Lower therefore signals inhibition by little substance. In the case of `C=C1C[C@@H](C)O[C@@](OC)([C@H](O)C(=O)N[C@@H]2OCO[C@H]3[C@@H]2O[C@H](C[C@H](O)CO)C(C)(C)[C@@H]3OC)C1`, the MIC in test [1] came to 1.56 µg/mL (≈ 3.19 µM); in test [5], 50 µg/mL (≈ 102 µM). Further, the 50% inhibitory concentration (IC50) was 3 µg/mL (≈ 6.13 µM) in test [2], 50 µg/mL (≈ 102 µM) in test [3] and over 50 µg/mL in test [4].
With `C=C1C[C@](OC)([C@H](O)C(=O)N[C@@H]2OCO[C@H]3[C@@H]2O[C@H](C[C@H](O)CO)C(C)(C)[C@@H]3OC)O[C@H](C)[C@@H]1C`, the results for the MIC in test [1] and in test [5] were 1.56 µg/mL (≈ 3.1 µM) and 12.5 µg/mL (≈ 24.8 µM), respectively. The values for the IC50 in test [2], in test [3] and in test [4] were 3 µg/mL (≈ 5.96 µM), 12.5 µg/mL (≈ 24.8 µM) and 12.5 µg/mL (≈ 24.8 µM), respectively.
For the molecule `Nc1nc2c(ncn2COCCO)c(=O)[nH]1` [ACYCLOVIR], the values for the concentration for half-maximal inhibition (IC50) in test [3] and in test [4] were 50 µg/mL (≈ 222 µM) and over 50 µg/mL, respectively. Also, the MIC in test [6] is 1.56 µg/mL (≈ 6.94 µM).
As for `CO[C@@H]1[C@H]2OCO[C@@H](NC(=O)[C@@H](O)[C@@]3(OC)CCC[C@@H](C)O3)[C@H]2O[C@H](C[C@H](O)CO)C1(C)C`, the MIC in test [1] is 3.12 µg/mL (≈ 6.54 µM); in test [5], 50 µg/mL (≈ 105 µM). Further, the concentration for half-maximal inhibition (IC50) in test [2] was over 10 µg/mL; in test [3] it was over 50 µg/mL; in test [4] it was over 50 µg/mL.
On to `C=C1C[C@](OC)([C@H](O)C(=O)N[C@H]2OCO[C@@H]3[C@@H](OC)[C@@H]4OC(C)(C)OC[C@H]4O[C@@H]32)O[C@H](C)[C@@H]1C`, for which the values for the MIC in test [7] and in test [6] were 12.5 µg/mL (≈ 25.6 µM) and 50 µg/mL (≈ 103 µM), respectively. The figures for the IC50 in test [2], in test [3] and in test [4] were 3 µg/mL (≈ 6.15 µM), over 50 µg/mL and over 50 µg/mL, respectively.
In the case of `C=C1C[C@](OC)([C@@H](O)C(=O)N[C@H]2OCO[C@H]3[C@@H]2O[C@H](C[C@H](O)CO)C(C)(C)[C@@H]3OC)O[C@H](C)[C@@H]1C`, the figures for the MIC in test [1] and in test [5] were under 0.391 µg/mL and 50 µg/mL (≈ 99.3 µM), respectively. The IC50 is over 10 µg/mL in test [2], 12.5 µg/mL (≈ 24.8 µM) in test [3] and 12.5 µg/mL (≈ 24.8 µM) in test [4].
As for `C=C1C[C@](OC)([C@H](O)C(=O)N[C@H]2OCO[C@@H]3[C@@H](OC)[C@H](O)[C@@H](CO)O[C@@H]32)O[C@H](C)[C@@H]1C`, the MIC in test [1] was determined as 3.12 µg/mL (≈ 6.98 µM); in test [5], 25 µg/mL (≈ 55.9 µM). The IC50 in test [2] was 1 µg/mL (≈ 2.23 µM); in test [3] it was 25 µg/mL (≈ 55.9 µM); in test [4] it was over 50 µg/mL.
As for `O=c1[nH]cc(F)c(=O)[nH]1` [FLUOROURACIL], the IC50 in test [2] stood at 3 µg/mL (≈ 23.1 µM).
For `C=C1C[C@@H](C)O[C@@](OC)([C@H](O)C(=O)N[C@H]2OCO[C@H]3[C@@H]2O[C@H](C[C@H](O)CO)C(C)(C)[C@@H]3OC)C1`, the MIC in test [1] and in test [5] was under 0.391 µg/mL throughout. Also, the results for the IC50 in test [2], in test [3] and in test [4] were under 0.03 µg/mL, under 0.391 µg/mL and under 0.391 µg/mL, respectively.
As to `C=C1C[C@](OC)([C@H](O)C(=O)N[C@@H]2OCO[C@@H]3[C@@H](OC)[C@@H]4OC(C)(C)OC[C@H]4O[C@@H]32)O[C@H](C)[C@@H]1C`, the MIC came out at 12.5 µg/mL (≈ 25.6 µM) in test [7] and 50 µg/mL (≈ 103 µM) in test [6]. In addition, the figures for the IC50 in test [2], in test [3] and in test [4] were 10 µg/mL (≈ 20.5 µM), 50 µg/mL (≈ 103 µM) and over 50 µg/mL, respectively.
For `C=C1C[C@](OC)([C@@H](O)C(=O)N[C@@H]2OCO[C@H]3[C@@H]2O[C@H](C[C@H](O)CO)C(C)(C)[C@@H]3OC)O[C@H](C)[C@@H]1C`, the figures for the MIC in test [1] and in test [5] were 12.5 µg/mL (≈ 24.8 µM) and 50 µg/mL (≈ 99.3 µM), respectively. Besides, the concentration for half-maximal inhibition (IC50) in test [2] is over 10 µg/mL; in test [3], over 50 µg/mL; in test [4], over 50 µg/mL.
In the case of `C=C1C[C@](OC)([C@H](O)C(=O)N[C@@H]2OCO[C@@H]3[C@@H](OC)[C@H](O)[C@@H](CO)O[C@@H]32)O[C@H](C)[C@@H]1C`, the MIC in test [1] was 25 µg/mL (≈ 55.9 µM); in test [5], over 50 µg/mL. Also, the IC50 is over 10 µg/mL in test [2], over 50 µg/mL in test [3] and over 50 µg/mL in test [4].
`C=C1C[C@](OC)([C@H](O)C(=O)N[C@H]2OCO[C@H]3[C@@H]2O[C@H](C[C@H](O)CO)C(C)(C)[C@@H]3OC)O[C@H](C)[C@@H]1C` [MYCALAMIDE A]: the MIC in test [1] and in test [5] was under 0.391 µg/mL each time. Besides, the IC50 in test [2] was under 0.03 µg/mL; in test [3], under 0.391 µg/mL; in test [4], under 0.391 µg/mL.
With `CO[C@@H]1[C@H]2OCO[C@H](NC(=O)[C@@H](O)[C@@]3(OC)CCC[C@@H](C)O3)[C@H]2O[C@H](C[C@H](O)CO)C1(C)C`, the MIC in test [1] is under 0.391 µg/mL; in test [5] it was 3.12 µg/mL (≈ 6.54 µM). In addition, the IC50 in test [2] came out at 0.03 µg/mL (≈ 0.0628 µM); in test [3] it was 0.391 µg/mL (≈ 0.819 µM); in test [4] it was 1.56 µg/mL (≈ 3.27 µM).
